Data taken from paper PMC10538209, “Ginsentide-like Coffeetides Isolated from Coffee Waste Are Cell-Penetrating and Metal-Binding Microproteins” (Molecules, 2023).
Positions of bridges follow the written chain, without caps; N, C: chain ends. Non-standard residues stand in square brackets, D forms with d. Residues, ends and D or L forms follow the SMILES beside them. pGlu = O=C1CC[C@@H](C(=O)O)N1

How the values were obtained:
Thermal stability assay = assay type: physicochemical; conditions: native cC1a 200 µM; high heat (95 °C in text; 100 °C water bath in legend and method), 2 h; quenched in ice bath; RP-UHPLC quantification; triplicate
Procedure: (§1) Figure 6 Stability assays of coffeetide cC1a. An amount of 200 µM coffeetide cC1a was subjected to (A) heat at 100 °C for 2 h, (B) acidic conditions in 1 M HCl (pH 2.0) for 2 h, (C) pepsin in 100 mM sodium citrate buffer (pH 2.5) for 6 h, (D) aminopeptidase I in 20 mM tricine for 6 h, and (E) human serum for 36 h. MALDI-TOF MS was used to characterize coffeetide cC1a and reversed-phase ultra-high pressure liquid chromatography was used to quantify cC1a in the treated samples to calculate the percentage of cC1a remaining intact.
(§2) Thermal and acidic stability: A solution of purified 200 µM coffeetide cC1a was subjected to rigorous conditions, including incubation at 100 °C in a water bath and exposure to 2 M hydrochloric acid for 2 h. The reactions were promptly quenched, either by placing the samples in an ice bath for 10 min or by adding 1 M sodium hydroxide at various time intervals (0, 30, 60, 90, 120 min). Subsequently, the treated samples were injected into RP-UHPLC to evaluate the presence of coffeetide cC1a and quantify any degradation. Each experiment was conducted in triplicate, and MALDI-TOF MS was employed to analyze the collected peaks.

Acidic stability assay = assay type: physicochemical; conditions: native cC1a 200 µM; acidic conditions (pH 2), 1 M HCl in legend, 2 M HCl in method, 2 h; quenched with 1 M NaOH; RP-UHPLC; triplicate
Procedure: as §1, §2

pepsin = test system: T1, pepsin; assay: Proteolytic stability, pepsin; assay type: in vitro ADME; conditions: native cC1a 200 µM, 4 mg/mL pepsin in 100 mM sodium citrate buffer pH 2.5, 37 °C, RP-UHPLC, read-out: coffeetide remained intact with pepsin
T1 construct: purchased Sigma Aldrich or Fisher Scientific (general statement only)
Procedure: as §1
(§3) Proteolytic stability: In this test, purified 200 µM coffeetide cC1a was exposed to 37 °C for 6 h in the presence of 4 mg/mL of pepsin in a 100 mM sodium citrate buffer (pH 2.5) or 20 U/mL of aminopeptidase I in 20 mM tricine and 0.05% bovine serum albumin (pH 8.0). The peptide-to-enzyme ratio (w/w) was maintained at either 20:1 or 50:1. At specific time intervals (0, 2, 4, and 6 h), 20 µL of each sample was injected into RP-UHPLC to monitor degradation.

aminopeptidase I = test system: T2, aminopeptidase I; assay: Proteolytic stability, aminopeptidase I; assay type: in vitro ADME; conditions: native cC1a 200 µM, 20 U/mL aminopeptidase I in 20 mM tricine, 0.05% BSA, pH 8.0, 37 °C, RP-UHPLC, read-out: coffeetide remained intact with aminopeptidase
T2 construct: purchased Sigma Aldrich or Fisher Scientific (general statement only)
Procedure: as §1, §3

[1] = Human serum-mediated stability; assay type: in vitro ADME; conditions: 25% human serum (AB-type) in DMEM, native cC1a, 25% human male serum (AB-type) in phenol red-free DMEM, 37 °C, ethanol precipitation, RP-UHPLC, read-out: coffeetide remained after treatment with human serum
Procedure: as §1
Human serum-mediated stability: To assess stability in a biologically relevant context, purified 200 µg coffeetide cC1a was incubated with 25% human male serum (AB-type) in phenol red-free Dulbecco’s Modified Eagle Medium (DMEM) at 37 °C for 48 h. At defined time points (0 h, 12 h, 24 h, and 48 h), 50 µL of the samples were collected and treated with 100 µL of 95% ethanol to precipitate serum proteins. After incubation at 4 °C for 15 min and centrifugation at 13,000 rpm for 10 min, the extent of degradation was evaluated through RP-UHPLC chromatograms.

HeLa cells = assay: MTT toxicity assay, HeLa; assay type: cell-based, human; conditions: 24 h treatment, concentrations up to 100 µM, MTT absorbance 550 nm, mean ± S.E.M. n = 3
Procedure: (§4) HeLa cells (human cervical cancer cells) and HUVEC-CS (human umbilical vein endothelial cells) were cultured in DMEM (Dulbecco’s Modified Eagle Medium) from Thermo Scientific, supplemented with 10% fetal bovine serum, 100 U/mL of penicillin, and streptomycin. Cell cultures were maintained in a 5% CO2 incubator at 37 °C.
(§5) To evaluate cell viability, a 3-(4,5-dimethylthiazolyl-2)-2,5-diphenyltetrazolium bromide (MTT) dye reduction assay was employed. In brief, HeLa and HUVEC-CS cells were subjected to treatment with either coffeetide cC1a or 0.1% Triton X-100 (utilized as a positive control) for a duration of 24 h. Following the incubation period, MTT was introduced to the cells to achieve a final concentration of 0.5 mg/mL and incubated for 3 h at 37 °C. The resulting insoluble formazan crystals were subsequently dissolved by the addition of dimethyl sulfoxide, and absorbance was measured at 550 nm using a microplate reader (Tecan Infinite® 200 Pro, Switzerland).

HUVEC-CS cells = assay: MTT toxicity assay, HUVEC-CS; assay type: cell-based, human; conditions: 24 h treatment, concentrations up to 100 µM, MTT absorbance 550 nm, mean ± S.E.M. n = 3
Procedure: as §4, §5

[2] = Isothermal titration calorimetry (ITC), Mg2+; conditions: 10 mM Tris, 100 mM NaCl, pH 6.3, 20 °C in text (298 K in method), synthetic cC1a, read-out: binding affinity (KD) to Mg^2+
Procedure: (§6) Isothermal Titration Calorimetry (ITC) experiments were conducted at 298 K using the MicroCal PEAQ ITC system from Malvern Instruments Ltd., Malvern, UK. MgCl2, KCl, CaCl2, and FeCl3 were dissolved in a 10 mM Tris buffer containing 100 mM NaCl at a pH of 6.3. Similarly, coffeetide cC1a was prepared in the same buffer. In the initial set of experiments, 200 µM of these ions were incrementally titrated into cC1a, involving twenty 2.5 µL injections, while simultaneously measuring the heat changes. Additional experiments were conducted with higher concentrations of KCl, MgCl2, and FeCl3 interacting with cC1a. Specifically, 400 µM of KCl, MgCl2, and FeCl3 were titrated into a solution containing 40 µM of cC1a, utilizing twenty 2.5 µL injections, and monitoring the associated heat changes. Control experiments were conducted by titrating ions into a 10 mM Tris (pH 6.3) buffer containing 100 mM NaCl to account for heat changes resulting from dilution. The obtained titration curves were analyzed using MicroCal PEAQ-ITC analytics software (version 1.0.0.1259, Malvern Instruments Ltd.).

[3] = Isothermal titration calorimetry (ITC), Fe3+; conditions: 10 mM Tris, 100 mM NaCl, pH 6.3, 20 °C in text (298 K in method), synthetic cC1a, read-out: binding affinity (KD) to Fe^3+
Procedure: as §6

[4] = Isothermal titration calorimetry (ITC), Ca2+; assay type: binding; conditions: 200 µM metal ion titrated into cC1a, 10 mM Tris, 100 mM NaCl, pH 6.3
Procedure: as §6

[5] = Isothermal titration calorimetry (ITC), K+; assay type: binding; conditions: 200 µM (also 400 µM) metal ion titrated into cC1a, 10 mM Tris, 100 mM NaCl, pH 6.3
Procedure: as §6

CC[C@H](C)[C@@H]1NC(=O)[C@@H]2CSSC[C@@H]3NC(=O)[C@@H]4CCCN4C(=O)[C@H](CCC(=O)O)NC(=O)CNC(=O)[C@H](CC(C)C)NC(=O)[C@@H]4CCCN4C(=O)[C@H](CO)NC(=O)[C@@H](NC(=O)[C@H](CCC(=O)O)NC(=O)CNC(=O)[C@H](CCC(=O)O)NC(=O)[C@@H]4CCC(=O)N4)CSSC[C@@H]4NC(=O)[C@H](CSSC[C@H](NC(=O)[C@H](CCCNC(=N)N)NC(=O)[C@H](CC(=O)O)NC(=O)[C@H]([C@@H](C)O)NC(=O)[C@H](CC(C)C)NC(=O)[C@H](CCC(N)=O)NC(=O)[C@H](Cc5c[nH]c6ccccc56)NC1=O)C(=O)N[C@@H](C(C)C)C(=O)NCC(=O)N[C@@H](CC(N)=O)C(=O)N[C@H](C(=O)O)CSSC[C@H](NC(=O)CNC(=O)[C@@H]1CCCN1C4=O)C(=O)N[C@@H]([C@@H](C)CC)C(=O)N2)NC(=O)CNC(=O)[C@H](Cc1c[nH]c2ccccc12)NC(=O)[C@@H]1CCCN1C(=O)[C@H](CC(N)=O)NC(=O)CNC(=O)[C@H](C)NC3=O [cC1a] ([pGlu]EGECSPLGEPCAGNPWGCCPGCICIWQLTDRCVGNC-OH; disulfide 5-20, 12-25, 19-33, 23-37)
coffeetide remained intact under high heat (Thermal stability assay): > 88% | coffeetide remained intact under acidic conditions (Acidic stability assay): > 88% | remaining at 6 h, 200 µM (pepsin): > 90% | remaining at 6 h, 200 µM (aminopeptidase I): > 90% | remaining at 36 h, 200 µM [1]: > 85% | cytotoxicity (MTT cell viability) (HeLa cells): not cytotoxic | cytotoxicity (MTT cell viability) (HUVEC-CS cells): not cytotoxic | Kd [2]: 4190 ± 4790 nM | Kd [3]: 1670 ± 1800 nM | binding affinity to Ca^2+ [4]: does not display reproducible binding affinity | binding affinity to K^+ [5]: does not display reproducible binding affinity
